Measurements as given in ChEMBL document CHEMBL1201862, “PubChem BioAssay data set” (2004).
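Test compounds were applied to cells in 96-well plates for 48 hours at 5 doses. The concentration for 50% growth inhibition is given as GI50.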 Activity calls are given as the source filed them. Cut-off read from the data, not from the text of the source: active = GI50 up to about 1.1 µM and inactive = higher.

Tests used:
Experiment in all cases: NCI-60 cell line screen, 48 h
COLO 205 = system: COLO 205
CAKI-1 = system: CAKI-1
DMS-273 = system: DMS-273
SF-268 = system: SF-268
UACC-257 = system: UACC-257
RXF 393 = system: RXF 393
OVCAR-5 = system: OVCAR-5
OVCAR-3 = system: OVCAR-3
786-0 = system: 786-0
SF-539 = system: SF-539
SN12C = system: SN12C
LOX IMVI = system: LOX IMVI
SW-620 = system: SW-620
HCC 2998 = system: HCC 2998
HOP-62 = system: HOP-62
SK-OV-3 = system: SK-OV-3
SK-MEL-28 = system: SK-MEL-28
MDA-N = system: MDA-N
MDA-MB-435 = system: MDA-MB-435
MCF7 = system: MCF7

Measured: GI50

N#C/C(=C\c1ccc[nH]1)C(=O)c1ccccc1
inactive: COLO 205 > 100 µM | CAKI-1 > 100 µM | DMS-273 > 100 µM | SF-268 > 100 µM | UACC-257 > 100 µM | RXF 393 58.9 µM | OVCAR-5 > 100 µM | OVCAR-3 > 100 µM | 786-0 > 100 µM | SF-539 > 100 µM | SN12C > 100 µM | LOX IMVI > 100 µM | SW-620 > 100 µM | HCC 2998 > 100 µM | HOP-62 > 100 µM | SK-OV-3 > 100 µM | SK-MEL-28 > 100 µM

Nc1ccc2c(SCC(=O)Nc3ccccc3-c3ccccc3NC(=O)CSc3c4ccccc4nc4cc(N)ccc34)c3ccccc3nc2c1
inactive: COLO 205 14.2 µM | CAKI-1 45.5 µM | DMS-273 33 µM | SF-268 37.1 µM | UACC-257 24.4 µM | RXF 393 34.9 µM | OVCAR-5 70 µM | OVCAR-3 22.2 µM | MDA-N 44.5 µM | 786-0 25.3 µM | SF-539 32.1 µM | SN12C 28.5 µM | LOX IMVI 22.9 µM | MDA-MB-435 22.1 µM | MCF7 12.4 µM | SW-620 29.6 µM | HCC 2998 36.1 µM | HOP-62 33.7 µM | SK-OV-3 43.2 µM | SK-MEL-28 21.8 µM

COc1cc2cc3c4c(cc(OC)c(OC)c4c2cc1OC)CCN3C(=O)CCCC(=O)O
inactive: COLO 205 > 100 µM | CAKI-1 > 100 µM | DMS-273 > 100 µM | SF-268 > 100 µM | UACC-257 > 100 µM | RXF 393 > 100 µM | OVCAR-5 > 100 µM | OVCAR-3 > 100 µM | 786-0 > 100 µM | SF-539 > 100 µM | SN12C > 100 µM | LOX IMVI > 100 µM | SW-620 > 100 µM | HCC 2998 > 100 µM | HOP-62 > 100 µM | SK-OV-3 > 100 µM | SK-MEL-28 > 100 µM
